The subject of data set [1] is U-251. Put plainly: Antiproliferative activity against human U-251 cells assessed as inhibition of cell growth measured after 72 hrs by CCK-8 assay. The format is functional, cell-based. As to conditions: U-251, 72 h. On the technique in general: Tetrazolium assays rely on reduction of a dye to a coloured formazan, in cell work by metabolically active cells.
For data set [2], the target named is T1, Prostaglandin G/H synthase 2 (Homo sapiens, UniProt P35354).
T1 sequence (P35354 whole entry): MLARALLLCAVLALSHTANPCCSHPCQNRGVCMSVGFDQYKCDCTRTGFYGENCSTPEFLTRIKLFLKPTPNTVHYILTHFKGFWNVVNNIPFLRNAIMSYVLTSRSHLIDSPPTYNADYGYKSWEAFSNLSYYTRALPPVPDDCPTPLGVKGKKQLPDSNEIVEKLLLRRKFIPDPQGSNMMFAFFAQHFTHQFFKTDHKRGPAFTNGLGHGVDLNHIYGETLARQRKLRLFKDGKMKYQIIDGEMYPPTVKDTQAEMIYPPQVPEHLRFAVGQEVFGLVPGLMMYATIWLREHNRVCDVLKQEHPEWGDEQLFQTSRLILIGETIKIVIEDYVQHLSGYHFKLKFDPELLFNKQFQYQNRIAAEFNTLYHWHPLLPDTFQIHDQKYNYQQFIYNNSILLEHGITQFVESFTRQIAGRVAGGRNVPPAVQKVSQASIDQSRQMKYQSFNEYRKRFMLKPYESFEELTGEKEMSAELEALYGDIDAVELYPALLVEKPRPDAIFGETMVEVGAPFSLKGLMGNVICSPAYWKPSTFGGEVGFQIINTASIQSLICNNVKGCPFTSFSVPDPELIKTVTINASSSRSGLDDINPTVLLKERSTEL
Put plainly: Inhibition of human recombinant COX-2 using arachidonic acid as substrate preincubated 10 mins followed by substrate addition and measured after 2 mins by ELISA. For orientation: ELISA stands for enzyme-linked immunosorbent assay.

The next data set addresses T2, DNA topoisomerase 1 (Homo sapiens, UniProt P11387).
T2 sequence (P11387 whole entry): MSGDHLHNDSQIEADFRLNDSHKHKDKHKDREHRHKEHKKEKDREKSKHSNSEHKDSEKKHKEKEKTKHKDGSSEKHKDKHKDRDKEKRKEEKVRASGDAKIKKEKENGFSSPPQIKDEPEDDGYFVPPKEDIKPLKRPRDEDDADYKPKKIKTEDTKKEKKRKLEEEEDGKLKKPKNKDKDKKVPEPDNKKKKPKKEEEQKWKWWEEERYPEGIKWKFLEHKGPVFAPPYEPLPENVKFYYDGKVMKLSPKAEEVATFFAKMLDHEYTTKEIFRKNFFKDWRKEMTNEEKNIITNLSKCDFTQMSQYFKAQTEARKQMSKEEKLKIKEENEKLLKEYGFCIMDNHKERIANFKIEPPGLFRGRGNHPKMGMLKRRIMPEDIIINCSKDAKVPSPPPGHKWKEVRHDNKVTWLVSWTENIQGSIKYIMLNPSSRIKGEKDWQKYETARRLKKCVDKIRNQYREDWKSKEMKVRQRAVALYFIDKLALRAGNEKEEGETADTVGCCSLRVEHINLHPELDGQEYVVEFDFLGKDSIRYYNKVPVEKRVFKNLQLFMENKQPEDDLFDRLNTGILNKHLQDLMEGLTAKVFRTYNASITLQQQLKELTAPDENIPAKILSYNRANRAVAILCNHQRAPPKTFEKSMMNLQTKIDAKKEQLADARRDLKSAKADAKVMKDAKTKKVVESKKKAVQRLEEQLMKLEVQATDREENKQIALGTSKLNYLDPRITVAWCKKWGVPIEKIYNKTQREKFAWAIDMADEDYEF
Put plainly: Inhibition of human topoisomerase I using DNA pBR322 as substrate assessed as DNA relaxation incubated for 45 mins by ethidium bromide staining based agarose gel electrophoresis.

Data set [3] deals with T3, DNA topoisomerase 1 (Homo sapiens) (UniProt P11387).
T3 sequence (whole entry): T2 sequence (P11387 whole entry)
Put plainly: Inhibition of human topoisomerase I using DNA pBR322 as substrate assessed as DNA intercalation at 100 uM incubated for 30 mins by ethidium bromide staining based agarose gel electrophoresis method.

For data set [4], the target named is DNA topoisomerase 2-alpha (Homo sapiens) (UniProt P11388). Put plainly: Inhibition of human topoisomerase 2 alpha using supercoiled DNA pBR322 as substrate assessed as DNA relaxation at 100 uM incubated for 30 mins by ethidium bromide staining based agarose gel electrophoresis.
In data set [5] the test system is U-87 MG. Description: Antiproliferative activity against human U-87 MG cells assessed as inhibition of cell growth measured up to 72 hrs by CCK-8 assay. The data set is classed as functional, cell-based. To be noted: U-87MG ATCC, time hrs <=72.
Data set [6] relates to U-87 MG. Put plainly: Inhibition of cell migration in human U-87 MG cells incubated for 24 hrs by crystal violet staining based light microscopic analysis. The data set is classed as functional. As to conditions: U-87MG ATCC.
The subject of data set [7] is U-251. Put plainly: Inhibition of cell migration in human U-251 cells incubated for 24 hrs by crystal violet staining based light microscopic analysis. The data set is classed as functional.
A short description of data set [8]: AUC ( 0 to infinity) in Sprague-Dawley rat at 100 mg/kg, ip measured up to 24 hrs by LC-MS analysis. To be noted: in vivo. Details: route intraperitoneal, dose 100 mg/kg, time <=24. The data set is classed as ADME, organism-based.
Data set [9] can be described thus: Ratio of drug concentration in brain to plasma in Sprague-Dawley rat at 100 mg/kg, ip measured 6 hrs post administration by LC-MS/MS analysis. As to conditions: read-out: BPR. The data set is classed as ADME, organism-based.
Data set [10] concerns C6. Description: Antitumor activity against rat C6 cells inoculated orthotopic Sprague-Dawley rat model assessed as reduction in tumor volume at 100 mg/kg, ip bid administered for 14 days. The format is functional, organism-based. As to conditions: time 14.0 day.
The target in data set [11] is T4, Prostaglandin G/H synthase 2 (Rattus norvegicus) (UniProt P35355).
T4 sequence (whole entry): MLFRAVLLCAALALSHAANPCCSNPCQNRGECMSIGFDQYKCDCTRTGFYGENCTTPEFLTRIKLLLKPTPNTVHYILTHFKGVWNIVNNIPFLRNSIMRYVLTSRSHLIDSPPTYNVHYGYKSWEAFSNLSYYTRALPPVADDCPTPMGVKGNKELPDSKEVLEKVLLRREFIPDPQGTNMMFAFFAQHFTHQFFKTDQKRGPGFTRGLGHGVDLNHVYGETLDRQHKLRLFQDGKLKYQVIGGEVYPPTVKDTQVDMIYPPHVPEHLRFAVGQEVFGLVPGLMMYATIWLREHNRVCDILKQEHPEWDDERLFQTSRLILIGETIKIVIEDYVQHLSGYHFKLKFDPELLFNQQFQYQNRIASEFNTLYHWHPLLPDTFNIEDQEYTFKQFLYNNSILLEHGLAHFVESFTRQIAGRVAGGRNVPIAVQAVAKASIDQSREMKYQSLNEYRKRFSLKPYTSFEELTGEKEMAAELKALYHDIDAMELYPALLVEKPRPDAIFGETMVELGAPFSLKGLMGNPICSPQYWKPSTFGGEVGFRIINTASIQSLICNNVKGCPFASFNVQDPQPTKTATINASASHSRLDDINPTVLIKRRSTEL
Description: In vivo inhibition of COX2 in ip dosed orthotopic Sprague-Dawley rat model inoculated with C6 cells assessed as reduction in PGE2 production by ELISA. The format is functional, organism-based.

For data set [12], the system named is U-251. Description: Antiproliferative activity against human U-251 cells assessed as cell survival at <= 1.1 uM measured after 24 hrs by CCK-8 assay. To be noted: dose microM <=1.1. The data set is classed as functional.
Data set [13] has as its system C6. Description: Antitumor activity against rat C6 cells inoculated orthotopic Sprague-Dawley rat model assessed as reduction in tumor weight at 100 mg/kg, ip bid administered for 14 days by MRI scanner. The format is functional, organism-based. As to conditions: time 14.0 day.

Activity calls are given as the source filed them. The rule behind the calls is not given here. Where only a bound is given, the exact number is not on record here.

Sequence of DNA topoisomerase 2-alpha (Homo sapiens) (P11388 whole entry): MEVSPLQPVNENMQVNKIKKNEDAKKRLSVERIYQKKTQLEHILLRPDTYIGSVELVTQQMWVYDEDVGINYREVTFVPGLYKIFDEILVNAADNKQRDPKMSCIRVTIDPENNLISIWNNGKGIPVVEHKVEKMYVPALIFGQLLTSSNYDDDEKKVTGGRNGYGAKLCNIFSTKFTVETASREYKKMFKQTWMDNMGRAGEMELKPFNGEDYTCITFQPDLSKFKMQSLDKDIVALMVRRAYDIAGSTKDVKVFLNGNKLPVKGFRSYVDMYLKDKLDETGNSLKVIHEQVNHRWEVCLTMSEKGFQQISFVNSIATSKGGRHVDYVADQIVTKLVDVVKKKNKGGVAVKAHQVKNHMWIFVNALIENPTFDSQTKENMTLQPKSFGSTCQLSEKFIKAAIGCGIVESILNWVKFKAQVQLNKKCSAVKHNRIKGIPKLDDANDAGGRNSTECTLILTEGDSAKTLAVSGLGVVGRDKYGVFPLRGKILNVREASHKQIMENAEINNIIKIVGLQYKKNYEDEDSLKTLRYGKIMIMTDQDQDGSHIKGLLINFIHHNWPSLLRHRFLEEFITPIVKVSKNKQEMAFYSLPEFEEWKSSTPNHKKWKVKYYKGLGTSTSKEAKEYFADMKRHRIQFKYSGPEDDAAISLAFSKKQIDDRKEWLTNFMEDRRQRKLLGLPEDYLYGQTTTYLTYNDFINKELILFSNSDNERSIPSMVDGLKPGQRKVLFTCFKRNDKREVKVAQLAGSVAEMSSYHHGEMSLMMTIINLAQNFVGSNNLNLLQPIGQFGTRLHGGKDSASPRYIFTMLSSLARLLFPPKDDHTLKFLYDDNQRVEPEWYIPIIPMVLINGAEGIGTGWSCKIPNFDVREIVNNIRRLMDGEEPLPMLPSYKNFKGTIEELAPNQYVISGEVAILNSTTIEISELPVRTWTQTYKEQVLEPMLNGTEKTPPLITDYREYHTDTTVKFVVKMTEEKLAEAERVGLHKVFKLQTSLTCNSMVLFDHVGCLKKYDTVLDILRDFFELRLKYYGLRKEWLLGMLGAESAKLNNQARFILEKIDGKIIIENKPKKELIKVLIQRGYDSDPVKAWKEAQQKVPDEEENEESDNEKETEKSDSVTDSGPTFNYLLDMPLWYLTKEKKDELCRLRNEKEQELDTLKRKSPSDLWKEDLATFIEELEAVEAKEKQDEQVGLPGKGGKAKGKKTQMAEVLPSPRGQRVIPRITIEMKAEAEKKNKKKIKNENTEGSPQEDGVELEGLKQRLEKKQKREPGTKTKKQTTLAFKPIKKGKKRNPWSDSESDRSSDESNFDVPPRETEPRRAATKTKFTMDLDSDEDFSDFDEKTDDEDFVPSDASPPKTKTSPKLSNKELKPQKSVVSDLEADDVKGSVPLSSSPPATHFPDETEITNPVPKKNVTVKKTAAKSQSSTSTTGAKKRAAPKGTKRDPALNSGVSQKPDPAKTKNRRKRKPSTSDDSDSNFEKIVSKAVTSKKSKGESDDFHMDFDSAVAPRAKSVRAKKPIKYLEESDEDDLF

One may read the IC50 as the midpoint of a concentration-inhibition curve. For orientation: AUC(0-inf) means the area under the concentration-time curve extrapolated to infinity. Read a low AUC(0-inf) as less exposure. As for `Cc1c(Cl)cccc1Nc1ccccc1C(=O)Nc1ccc2c(c1)OCO2`, the IC50 is 9.91 µM with U-251 [1], 45 µM in data set [2] and 47.6 µM at DNA topoisomerase 1. Also, the inhibition result in [3] and in data set [11] was “Active” each time. For the same compound, in data set [4], the inhibition result was “inactive”. Further, the Activity entry in the data set with U-87 MG [5] was “Dose-Dependent Effect”. Besides, the inhibition entry in the data set on U-87 MG [6] and with U-251 [7] was “Dose-Dependent Effect” each time. Besides, the AUC(0-inf) in [8] worked out at 49200 ng·h/mL. For the same compound, in [9], the Kp at 6 h is 0.29. The outcome with C6 [10] and with C6 [13] was Active. The Survival in the data set with U-251 [12] is listed as more than 80%.

Regarding `COc1ccc(NC(=O)c2ccccc2Nc2cccc(Cl)c2C)cc1`, the results for the IC50 (in the data set with U-251 [1]; in data set [2]; at DNA topoisomerase 1) were 5.36 µM, 33.6 µM and 33.6 µM, respectively. Also, the inhibition entry in data set [3] and in data set [11] was “Active” in each case. Further, in [4], the inhibition entry is “inactive”. Moreover, the Activity entry in the data set with U-87 MG [5] is “Dose-Dependent Effect”. Further, the inhibition entry in the data set with U-87 MG [6] and with U-251 [7] was “Dose-Dependent Effect” each time. Moreover, the AUC(0-inf) in data set [8] was 86200 ng·h/mL. Also, in [9], the Kp at 6 h was 0.65. Moreover, the outcome with C6 [10] and in the data set with C6 [13] was Active. Besides, the Survival in the data set on U-251 [12] is reported as more than 80%.

The values are drawn from ChEMBL document CHEMBL5032522, “N-2-(phenylamino) benzamide derivatives as novel anti-glioblastoma agents: Synthesis and biological evaluation” (Eur J Med Chem, 2021).
